Assay results as given in US12642801B2, “Pharmaceutical composition for preventing or treating rheumatoid arthritis and health functional food” (SEOUL NATIONAL UNIVERSITY R&DB FOUNDATION, priority 2021, dated 2026).

How the values were obtained:
CIA mice [1] = test: Edema of paws and joints / paw thickness in CIA mice; format: in vivo
Description: In the present invention, “CIA” is used for an animal model suffering from rheumatoid arthritis and means “collagen-induced arthritis.”
(§1) In the examples of the present invention, efficacies of the composition of the present invention were investigated by establishing animal models CIA or SIA with animal diseases similar to rheumatoid arthritis of the human body. Specifically, 100 μl of 250 μg or 500 μg of the compound YKL-05-099 (CAS No.: 1936529-65-5) shown in FIG. 1 was intraperitoneally (i.p.) administered to a mouse weighed 25 g (that is, 10 mg or 20 mg per 1 kg) once a day.
(§2) After i.p. administration of YKL-05-099 in an amount of 10 mg/kg or 20 mg/kg to mice having rheumatoid arthritis once a day, improvement of edema in the paws was investigated. For definite measurement and comparison, the most swollen portion of the paw was measured in multiple times, and collected numerical values of paw thickness were recorded and compared. Disease-free mice without administration of antigens were used as a negative control.
(§3) FIG. 4 illustrates measured results of the paw thickness of CIA mice while FIG. 5 illustrates measured results of the paw thickness of SIA mice, respectively.

SIA mice [2] = test: Edema of paws and joints / paw thickness in SIA mice; format: in vivo
Description: In the present invention, “SIA” is used for an animal model suffering from rheumatoid arthritis and means “serum transfer arthritis.”
as §1, §2, §3

CIA mice [3] = test: Rheumatoid arthritis clinical score in CIA mice; format: in vivo; conditions: 10 mg/kg or 20 mg/kg, score 0-4 per paw, four paws combined, FIG. 6
Description: as §1
(§4) With regard to rheumatoid arthritis animal models CIA and SIA, respectively, rheumatoid arthritis clinical score was investigated. Disease-free mice without administration of antigen were used as a negative control. The clinical scores were determined depending on significance as follows: 0 (no symptom); 1 (slight edema on the soles or toes); 2 (significant edema throughout the soles and toes); 3 (significant to serious edema throughout the paw); 4 (serious edema and distortion throughout the paw), and then, the results for four paws were combined. FIG. 6 illustrates the results for CIA mice, and FIG. 7 illustrates the results for SIA mice, respectively.

SIA mice [4] = test: Rheumatoid arthritis clinical score in SIA mice; format: in vivo; conditions: 10 mg/kg or 20 mg/kg, score 0-4 per paw, four paws combined, FIG. 7
Description: as §1, §4

[5] = test system: spleen and the lymph nodes; test: Expansion of spleen and lymph tissues (inguinal and mesenteric lymph nodes); format: in vivo, mice; conditions: compared to the control, FIG. 8
Description: as §1, with “day. […] Disease-free mice without administration of antigens were used as a negative control, and the compared results are shown in FIG. 8.” for “day.”

CIA mice [6] = test: Bone loss around paw joint (micro CT) in CIA mice; format: in vivo; conditions: bone amount in the paw joint, FIG. 9
Description: FIG. 9 is photographs taken through micro CT and graphs showing effects of inhibiting reduction of bone loss around the joints in the embodiments of the present invention.
as §1

[7] = test system: TNF-α, IL-6, IFN-γ, IL-17a; test: Inflammatory cytokines in peripheral blood by ELISA, CIA mice; format: in vivo; conditions: ELISA at time of sacrifice, FIG. 10
Description: as §1
(§5) After administering YKL-05-099 to the rheumatoid arthritis animal model, essential inflammatory cytokines to induce rheumatoid arthritis such as TNF-α and IL-6, the representative immunoreactive cytokine of TH1 such as IFN-γ, and the representative immunoreactive cytokine of TH17 such as 1L-17a within peripheral blood at a time of sacrificing the mouse were subjected to analysis through enzyme linked immunosorbent assay (ELISA). Specifically, cytokine analysis was implemented using ELISA kit products according to instructions of Invitrogen Co., wherein the used product serial numbers are anti-IFN-γ (88-7314), anti-TNF-α (88-7324), anti-IL-17a (88-7371) and anti-IL-6 (88-7064). Disease-free mice without administration of antigens were used as a negative control. […] FIG. 10 illustrates measured results of cytokines in CIA mice while FIG. 11 illustrates measured results of cytokines in SIA mice, respectively.

[8] = test system: TNF-α, IL-6, IFN-γ, IL-17a; test: Inflammatory cytokines in peripheral blood by ELISA, SIA mice; format: in vivo; conditions: ELISA at time of sacrifice, FIG. 11
Description: as §1, §5

CD4+ Foxp3+ cells (Treg) = test: Treg cell level in spleen cells of CIA mice by flow cytometry; format: in vivo; conditions: for ratio of CD4+ Foxp3+ cells as a marker for Treg: spleen live cells, CIA+Veh 12.24±0.34%, sham 10.725±0.53%
Description: After i.p. administration of YKL-05-099 in an amount of 10 mg/kg or 20 mg/kg to the rheumatoid arthritis model CIA mice once a day, spleen cells were isolated at a time of sacrificing the mice to investigate Treg cell levels. Immune cell assay was performed through flow cytometry, and the experiment was implemented according to product instructions of Invitrogen Co. Specifically, the spleen cells were isolated to prepare 1×10^6 cells/100 μl of single cells, followed by staining live/dead cells using fixable viability dye (Invitrogen, eFluor™780, 65-0865-14), and then blocking the same using anti-CD16/32 (Invitrogen, 14-0161). Following this, the above product was stained using anti-CD4 (Invitrogen, RM4-5, mice) and anti-Foxp3 (Invitrogen, FJK-16s, mice). The stained cells were subjected to measurement of a ratio of CD4^+ Foxp3^+ cells as a marker for Treg in live cells isolated through flow cytometry.
FIGS. 12A and 12B illustrate the above measured results. From the results of measuring a ratio of CD4^+ Foxp3^+ cells as a marker for Treg, it was confirmed that sham (disease-free mice) is 10.725±0.53%, CIA+Veh is 12.24±0.34%, CIA+YKL-05-099 10 mg/kg is 14.2±1.28%, CIA+YKL-05-099 20 mg/kg is 14.98±1.16%, respectively. Using unpaid parametric Welch's corrected t-test (two-tailed), p-value was indicated. With regard to statistically significant levels, p-value is 0.05 or less, wherein significance was represented by *p<0.05, **p<0.01 and ***p<0.001. Sham vs CIA+Veh p-value is 0.0045, CIA+YKL-05-099 10 mg/kg vs CIA+Veh p-value is 0.0119, CIA+YKL-05-099 20 mg/kg vs CIA+Veh p-value is 0.0046, CIA+YKL-05-099 10 mg/kg vs sham p-value is 0.0005, and CIA_YKL-05-099 20 mg/kg vs sham p-value is 0.0004.

[9] = test system: CD11b+ F4/80+ cells (macrophage cells); test: Macrophage cell level in spleen cells of CIA mice by flow cytometry; format: in vivo; conditions: for ratio of CD11b+ F4/80+ cells as a marker for macrophage cells: spleen live cells, CIA+Veh 1.854±0.41%, sham 0.355±0.08%
Description: In order to confirm mitigation effects of increase in immune active macrophage cells in the spleen, after i.p. administration of YKL-05-099 in an amount of 10 mg/kg or 20 mg/kg to the rheumatoid arthritis model CIA mice once a day, spleen cells were isolated at a time of sacrificing the mice to investigate macrophage cell levels. FIGS. 13A and 13B illustrate the above results of investigating macrophage cell levels. Immune cell assay was performed through flow cytometry, and the experiment was implemented according to product instructions of Invitrogen Co.
Specifically, the spleen cells were isolated to prepare 1×10^6 cells/100 μl of single cells, followed by staining live/dead cells using fixable viability dye (Invitrogen, eFluor™780, 65-0865-14), and then blocking the same using anti-CD16/32 (Invitrogen, 14-0161). Following this, the above product was stained using anti-CD11b (Invitrogen, M1/70) and anti-F4/80 (Invitrogen, BM8). The stained cells were subjected to measurement of a ratio of CD11b^+ F4/80^+ cells as a marker for macrophage cells in live cells isolated through flow cytometry.
From the result of measuring a ratio of CD11b^+ F4/80^+ cells as a marker for macrophage cells, it was confirmed that sham is 0.355±0.08%, CIA+Veh is 1.854±0.41%, CIA+YKL-05-099 10 mg/kg is 1.043±0.30%, CIA+YKL-05-099 20 mg/kg is 0.975±0.12%, respectively. Using unpaid parametric Welch's corrected t-test (two-tailed), p-value was indicated. With regard to statistically significant levels, p-value is 0.05 or less, wherein significance was represented by *p<0.05, **p<0.01 and ***p<0.001. CIA+Veh vs sham p-value is 0.0009, CIA+YKL-05-099 20 mg/kg vs CIA+Veh p-value is 0.0057, CIA+YKL-05-099 10 mg/kg vs sham p-value is 0.0019, CIA+YKL-05-099 20 mg/kg vs sham p-value is 0.0002, and CIA+YKL-05-099 10 mg/kg vs CIA+Veh p-value is 0.0076.

With `COc1ccc(N2C(=O)N(c3c(C)cccc3Cl)Cc3cnc(Nc4ccc(C5CCN(C)CC5)cc4OC)nc32)nc1` [YKL-05-099] the “edema of the paws and around the joints (visually observed)” value (CIA mice [1]; 10 mg/kg or 20 mg/kg i.p. once a day, compared to the control, FIG. 2) was “remarkably improved”, the paw thickness (CIA mice [1]; vs vehicle administered group, FIG. 4) was “remarkably thinner” and the “edema of the paws and around the joints (visually observed)” value (SIA mice [2]; 10 mg/kg or 20 mg/kg i.p. once a day, compared to the control, FIG. 3) was “remarkably improved”. For the same molecule, the paw thickness (SIA mice [2]; vs vehicle administered group, FIG. 5) was “remarkably thinner”, the “rheumatoid arthritis clinical scores” value (CIA mice [3]) was “significantly reduced” and the “rheumatoid arthritis clinical scores” value (SIA mice [4]) was “significantly reduced”. For the same molecule, the “expansion of the spleen and the lymph nodes” value [5] was “greatly suppressed”, the “bone loss in paw joint” value (CIA mice [6]) was “significantly inhibited” and the “inflammatory cytokines (TNF-α, IL-6, IFN-γ, IL-17a) within peripheral blood” value [7] was “greatly suppressed”. The “inflammatory cytokines (TNF-α, IL-6, IFN-γ, IL-17a) within peripheral blood” value [8] was “greatly suppressed”, the “ratio of Treg cells compared to CIA+Veh” value (CD4+ Foxp3+ cells (Treg); 10 mg/kg and 20 mg/kg) was “statistically significant increase” and the “ratio of CD4+ Foxp3+ cells as a marker for Treg” value (CD4+ Foxp3+ cells (Treg); 10 mg/kg i.p. once a day, p vs Veh 0.0119) was 14.2±1.28%. For the same molecule, the “ratio of CD4+ Foxp3+ cells as a marker for Treg” value (CD4+ Foxp3+ cells (Treg); 20 mg/kg i.p. once a day, p vs Veh 0.0046) was 14.98±1.16%, the “ratio of macrophage cells compared to CIA+Veh” value ([9]; 10 mg/kg and 20 mg/kg) was “statistically significant decrease” and the “ratio of CD11b+ F4/80+ cells as a marker for macrophage cells” value ([9]; 10 mg/kg i.p. once a day, p vs Veh 0.0076) was 1.043±0.30%. For the same molecule, the “ratio of CD11b+ F4/80+ cells as a marker for macrophage cells” value ([9]; 20 mg/kg i.p. once a day, p vs Veh 0.0057) was 0.975±0.12%.
